Test results reported in patent US8624027B2, “Combination therapy for treating cancer and diagnostic assays for use therein” (AbbVie Inc., priority 2005, dated 2014).
Read-outs that look alike come from different tables or passages of the source.

Assays:
Bcl-2 protein = molecular target: T1, Bcl-2 protein (Homo sapiens, UniProt P10415, DELINS35-91DVEENRTEAPEGTESE, form not given); test: Bcl-2 binding affinity, fluorescence polarization with fluorescein-labeled BAX peptide; settings: Wang's equation, read-out: Target Binding Affinity Ki (Bcl-2)
T1 construct: fused on or other part: A short piece of the Bcl-xL (Q07817) loop replaces Bcl-2 loop residues 35-91; The C-terminal membrane anchor is absent

Bcl-XL protein = Bcl-XL protein (Homo sapiens, UniProt Q07817); test: Bcl-XL binding affinity, fluorescence polarization with fluorescein-labeled BAD peptide; settings: Wang's equation, read-out: Target Binding Affinity Ki (Bcl-XL)
Method: A mixture comprising 125 μL per well of assay buffer (20 mM phosphate buffer (pH 7.4), 1 mM EDTA, 50 mM NaCl, 0.05% PF-68), 6 nM of Bcl-XL protein (prepared as described in Science 1997, 275, 983-986), 1 nM fluorescein-labeled BAD peptide (prepared in-house) and the DMSO solution of the compound was shaken for 2 minutes and placed in a LJL Analyst (LJL Bio Systems, CA). A negative control (DMSO, 15 nM BAD peptide, assay buffer) and a positive control (DMSO, 1 nM BAD peptide, 6 nM Bcl-XL, assay buffer) were used to determine the range of the assay. Polarization was measured at room temperature using a continuous Fluorescein lamp (excitation 485 nm, emission 530 nm). Percentage of inhibition was determined by (1-((mP value of well-negative control)/range))×100%.

[1] = tested on: NCI-H146 human small cell lung carcinoma cells; test: Cellular efficacy in human tumor cell line (MTS viability assay); format: cell-based; settings: 10% human serum, 48 hours
Method: NCI-H146 (ATCC, Manassas, Va.) human small cell lung carcinoma cells were plated 50,000 cells per well in 96-well tissue culture plates in a total volume of 100 μL tissue culture medium supplemented with 10% human serum (Invitrogen, Carlsbad, Calif.) instead of fetal bovine serum and treated with a 2-fold serial dilution of the compounds of interest from 10 μM to 0.020 μM. Each concentration was tested in duplicate at least 3 separate times. The number of viable cells following 48 hours of compound treatment was determined using the CellTiter 96® AQueous non-radioactive cell proliferation MTS assay according to manufacturer's recommendations (Promega Corp., Madison, Wis.).

[2] = Pharmacokinetic evaluation in rat; format: in vivo; settings: male, Sprague-Dawley, plasma; for AUC(0-inf): single 5 mg/kg oral dose, Table 1, read-out: Pharmacokinetic area under the plasma concentration Curve (rat) AUC0-∞; for AUC / Cmax: 5 mg/kg, oral
Method: The pharmacokinetic behavior of compounds of this disclosure was determined following a single 2 mg/kg intravenous or 5 mg/kg oral dose in male Sprague-Dawley derived rats (n=3 per group). The compounds were prepared as 2 mg/mL solution in a 10% DMSO in PEG-400 formulation for both oral and intravenous administration. The 1 mL/kg intravenous dose was administered as a slow bolus (about 1-2 minutes) in the jugular vein of a rat under light ether anesthetic. The oral dose was administered by gavage. Serial blood samples were obtained from a tail vein of each rat prior 0.1 (IV only), 0.25, 0.5, 1, 1.5, 2, 3, 4, 6, 8 and 24 hours after dosing. The heparinized samples were thoroughly mixed and placed in an ice bath. Plasma was separated by centrifugation and stored frozen prior to analysis.
The compounds of interest were separated from the plasma using protein precipitation with acetonitrile. A plasma (100-200 μL, sample or spiked standard) aliquot was combined with 50 μL of internal standard (structurally related analog prepared in acetonitrile) and 1 ml acetonitrile in a 96-well polypropylene deep well plate. The plates were vortexed for 30 seconds followed by centrifugation (3500 rpm×15 minutes, 4° C.). In an automated manner, the supernatant was transferred to a clean 96-well plate. The samples were evaporated to near dryness on a Micro-Vap™ under a stream of dry nitrogen over low heat (˜37° C.). The samples were reconstituted vortexing with 0.2 mL 5% DMSO in acetonitrile. A 0.1-0.2 ml aliquot of acetonitrile: 0.1% trifluoroacetic acid (20:80, by volume) was added to each well, followed by an additional 30 second vortexing. The plates were centrifuged (3500 rpm×15 minutes, 4° C.) prior to HPLC-MS/MS analysis. Samples were analyzed simultaneously with spiked plasma standards. All samples from each study were analyzed as a single batch on the LC-MS/MS.
The compounds of interest and the internal standard were separated from each other and co-extracted contaminants on a 50×3 mm Keystone Betasil CN 5 μm column with an acetonitrile: 0.1% trifluoroacetic acid mobile phase (50:50, by volume) at a flow rate of 0.7 ml/min. Analysis was performed on a Sciex API 300™ Biomolecular Mass Analyzer using a heated nebulizer interface. Peak areas of the title compounds and internal standards were determined using the Sciex MacQuan™ software. Calibration curves were derived from peak area ratio (parent drug/internal standard) of the spiked rat plasma standards using least squares linear regression of the ratio versus the theoretical concentration. The methods were generally linear over the range of the standard curve (correlation coefficients >0.99) with an estimated quantitation limit of 0.01 μg/mL. The plasma concentration data for each animal were submitted to multi-exponential curve fitting using WinNonlin. The area under the plasma concentration-time curve from 0 to t hours (time of the last measurable plasma concentration) after dosing (AUC0-t) was calculated using the linear trapezoidal rule for the plasma concentration-time profiles. The residual area extrapolated to infinity, determined as the final measured plasma concentration (Ct) divided by the terminal elimination rate constant (β), was added to AUC0-t to produce the total area under the curve (AUC0-∞). Ki values shown in the tables below were determined using Wang's equation (Wang Z X., An Exact Mathematical Expression For Describing Competitive Binding Of Two Different Ligands To A Protein Molecule. FEBS Lett. 1995; 360:111-4)).

[3] = NCI-H146, Table 1, read-out: NCI-H146 Cellular Efficacy EC50
[4] = NCI-H146, Table 3, read-out: NCI-H146 Cellular Efficacy H146 EC50
[5] = Table 3, read-out: Pharmacokinetic area under the plasma concentration Curve (rat) AUC
[6] = Table 3, read-out: Pharmacokinetic peak plasma concentration (rat) Cmax
[7] = NCI-H146, Table 2, read-out: NCI-H146 Cellular Efficacy H146, EC50
[8] = Table 2, read-out: Pharmacokinetic area under the plasma concentration curve (rat) AUC
[9] = Table 2, read-out: Pharmacokinetic peak plasma concentration (rat) Cmax

T1 sequence (P10415 with tags, fused parts or gaps with the stated changes): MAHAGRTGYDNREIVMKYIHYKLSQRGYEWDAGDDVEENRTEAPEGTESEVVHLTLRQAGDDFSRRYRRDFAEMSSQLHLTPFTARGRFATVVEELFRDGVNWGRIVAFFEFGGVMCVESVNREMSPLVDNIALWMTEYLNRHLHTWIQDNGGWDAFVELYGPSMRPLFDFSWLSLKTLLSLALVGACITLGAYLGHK
Bcl-XL protein, sequence (Q07817 with tags, fused parts or gaps DEL45-84): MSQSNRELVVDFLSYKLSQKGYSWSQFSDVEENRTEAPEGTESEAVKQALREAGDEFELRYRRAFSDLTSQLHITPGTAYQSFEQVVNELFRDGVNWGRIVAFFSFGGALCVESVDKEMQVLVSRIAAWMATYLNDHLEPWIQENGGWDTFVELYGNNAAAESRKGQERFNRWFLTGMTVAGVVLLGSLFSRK

Which Ki (Bcl-2 protein) does the source give for `CN(C)CC[C@H](CSc1ccccc1)Nc1ccc(S(=O)(=O)NC(=O)c2ccc(N3CCN(CC4=C(c5ccc(Cl)cc5)CCCCC4)CC3)cc2)cc1S(=O)(=O)C(F)(F)F` [Example 17, N-(4-(4-((2-(4-chlorophenyl)cyclohept-1-en-1-yl)methyl)piperazin-1-yl)benzoyl)-4-(((1R)-3-(dimethylamino)-1-((phenylsulfanyl)methyl)propyl)amino)-3-((trifluoromethyl)sulfonyl)benzenesulfonamide] here?
Its Ki is no more than 1 nM.

And the Ki (Bcl-XL protein)?
Its Ki is no more than 1 nM.

And the EC50 [1, 3]?
Its EC50 is 28.7 nM.

And the AUC(0-inf) [2]?
Its AUC(0-inf) is 0.88 µM·h.

For `O=C(NS(=O)(=O)c1ccc(N[C@H](CCN2CCOCC2)CSc2ccccc2)c(S(=O)(=O)C(F)(F)F)c1)c1ccc(N2CCN(CC3=C(c4ccc(Cl)cc4)CCOC3)CC2)cc1` [Example 21, N-(4-(4-((4-(4-chlorophenyl)-5,6-dihydro-2H-pyran-3-yl)methyl)piperazin-1-yl)benzoyl)-4-(((1R)-3-(morpholin-4-yl)-1-((phenylsulfanyl)methyl)propyl)amino)-3-((trifluoromethyl)sulfonyl)benzenesulfonamide], which Ki (Bcl-2 protein) is on record?
Its Ki is no more than 1 nM.

And the Ki (Bcl-XL protein)?
Its Ki is no more than 1 nM.

What about the EC50 [1, 3] of the same molecule?
The EC50 was 64.3 nM.

And the AUC(0-inf) [2]?
Its AUC(0-inf) is 1.81 µM·h.

Which results are given for `O=C(NS(=O)(=O)c1ccc(N[C@H](CCN2CCCC2)CSc2ccccc2)c(S(=O)(=O)C(F)(F)Cl)c1)c1ccc(N2CCN(CC3=C(c4ccc(Cl)cc4)CCCCC3)CC2)cc1` [Example 32, 3-((chloro(difluoro)methyl)sulfonyl)-N-(4-(4-((2-(4-chlorophenyl)cyclohept-1-en-1-yl)methyl)piperazin-1-yl)benzoyl)-4-(((1R)-1-((phenylsulfanyl)methyl)-3-(pyrrolidin-1-yl)propyl)amino)benzenesulfonamide]?
Ki (Bcl-2 protein): ≤ 1 nM; Ki (Bcl-XL protein): ≤ 1 nM; EC50 [1, 3]: 18.7 nM; AUC(0-inf) [2]: 1.38 µM·h

For `CN(C)CC[C@H](CSc1ccccc1)Nc1ccc(S(=O)(=O)NC(=O)c2ccc(N3CCN(CC4=C(c5ccc(Cl)cc5)CCCC4)CC3)cc2)cc1C(F)(F)F` [H, reference compound], which EC50 [1, 4] is on record?
The EC50 was 410 nM.

And the AUC [2, 5]?
The AUC was 1.97 µM·h.

And the Cmax [2, 6]?
Its Cmax is 215 nM.

Which Ki (Bcl-2 protein) does the source give for `O=C(NS(=O)(=O)c1ccc(N[C@H](CCN2CC3CC2CO3)CSc2ccccc2)c(S(=O)(=O)C(F)(F)F)c1)c1ccc(N2CCN(CC3=C(c4ccc(Cl)cc4)CCCCC3)CC2)cc1` (stereo partly drawn) [Example 12, N-(4-(4-((2-(4-chlorophenyl)cyclohept-1-en-1-yl)methyl)piperazin-1-yl)benzoyl)-4-(((1R)-3-(2-oxa-5-azabicyclo[2.2.1]hept-5-yl)-1-((phenylsulfanyl)methyl)propyl)amino)-3-((trifluoromethyl)sulfonyl)benzenesulfonamide] here?
The Ki was no more than 1 nM.

And the Ki (Bcl-XL protein)?
Its Ki is no more than 1 nM.

What about the EC50 [1, 3] of the same molecule?
Its EC50 is 27.1 nM.

And the AUC(0-inf) [2]?
The AUC(0-inf) was 2.07 µM·h.

What does the source list for `CC1(C)CCC(CN2CCN(c3ccc(C(=O)NS(=O)(=O)c4ccc(N[C@H](CCN5C[C@@H]6C[C@H]5CO6)CSc5ccccc5)c(S(=O)(=O)C(F)(F)F)c4)cc3)CC2)=C(c2ccc(Cl)cc2)C1` [Example 36, N-(4-(4-((2-(4-chlorophenyl)-4,4-dimethylcyclohex-1-en-1-yl)methyl)piperazin-1-yl)benzoyl)-4-(((1R)-3-((1S,4S)-2-oxa-5-azabicyclo[2.2.1]hept-5-yl)-1-((phenylsulfanyl)methyl)propyl)amino)-3-((trifluoromethyl)sulfonyl)benzenesulfonamide]?
Ki (Bcl-2 protein): ≤ 1 nM; Ki (Bcl-XL protein): ≤ 1 nM; EC50 [1, 3]: 24.2 nM; AUC(0-inf) [2]: 4.22 µM·h

With `CN(C)CC[C@H](CSc1ccccc1)Nc1ccc(S(=O)(=O)NC(=O)c2ccc(N3CCN(CC4=C(c5ccc(Cl)cc5)CCCC4)CC3)cc2)cc1S(=O)(=O)C(F)(F)F` [Example 26, N-(4-(4-((2-(4-chlorophenyl)cyclohex-1-en-1-yl)methyl)piperazin-1-yl)benzoyl)-4-(((1R)-3-(dimethylamino)-1-((phenylsulfanyl)methyl)propyl)amino)-3-((trifluoromethyl)sulfonyl)benzenesulfonamide] as the molecule, how does the Ki (Bcl-2 protein) read?
The Ki was no more than 1 nM.

What about the Ki (Bcl-XL protein) of the same molecule?
The Ki was no more than 1 nM.

And the EC50 [1, 3]?
The EC50 was 24.3 nM.

What about the EC50 [1, 4] of the same molecule?
Its EC50 is 24 nM.

What about the AUC [2, 5] of the same molecule?
Its AUC is 0.803 µM·h.

And the Cmax [2, 6]?
Its Cmax is 97 nM.

And the AUC(0-inf) [2]?
Its AUC(0-inf) is 0.8 µM·h.

With `CN(C)CC[C@H](CSc1ccccc1)Nc1ccc(S(=O)(=O)NC(=O)c2ccc(N3CCN(CC4=C(c5ccc(Cl)cc5)CCCC4)CC3)cc2)cc1[N+](=O)[O-]` [G, reference compound] as the molecule, how does the EC50 [1, 4] read?
Its EC50 is 26 nM.

And the AUC [2, 5]?
Its AUC is 0.507 µM·h.

And the Cmax [2, 6]?
Its Cmax is 57 nM.

Which EC50 [1, 7] does the source give for `CN(C)CC[C@H](CSc1ccccc1)Nc1ccc(S(=O)(=O)NC(=O)c2ccc(N3CCN(Cc4ccccc4-c4ccc(Cl)cc4)CC3)cc2)c(F)c1C(F)(F)F` [D, reference compound] here?
The EC50 was 7330 nM.

What about the AUC [2, 8] of the same molecule?
The AUC was 3.83 µM·h.

What about the Cmax [2, 9] of the same molecule?
The Cmax was 386 nM.

For “3-((chloro(difluoro)methyl)sulfonyl)-N-(4-(4-((2-(4-chlorophenyl)-4,4-dimethylcyclohex-1-en-1-yl)methyl)piperazin-1-yl)benzoyl)-4-(((1R)-3-(dimethylamino)-1-((phenylsulfanyl)methyl)propyl)amino)benzenesulfonamide [Example 28]”, which EC50 ([1]; Table 1, read-out: NCI-H146 Cellular Efficacy EC50) is on record?
Its EC50 is 24.2 nM.

What does the source list for `CN(C)CC[C@H](CSc1ccccc1)Nc1ccc(S(=O)(=O)NC(=O)c2ccc(N3CCN(Cc4ccccc4-c4ccc(Cl)cc4)CC3)cc2)cc1[N+](=O)[O-]` [B, reference compound]?
EC50 [1, 7]: 63 nM; AUC [2, 8]: 0.283 µM·h; Cmax [2, 9]: 39 nM

What does the source list for `CN(C)CC[C@H](CSc1ccccc1)Nc1ccc(S(=O)(=O)NC(=O)c2ccc(N3CCN(Cc4ccccc4-c4ccc(Cl)cc4)CC3)cc2)cc1C(F)(F)F` [A, reference compound]?
EC50 [1, 7]: 1600 nM; AUC [2, 8]: 4.41 µM·h; Cmax [2, 9]: 371 nM

Which EC50 [1, 7] does the source give for `CN(C)CC[C@H](CSc1ccccc1)Nc1ccc(S(=O)(=O)NC(=O)c2ccc(N3CCN(Cc4ccccc4-c4ccc(Cl)cc4)CC3)cc2)cc1C#N` [C, reference compound] here?
Its EC50 is 1810 nM.

And the AUC [2, 8]?
The AUC was 1.92 µM·h.

What about the Cmax [2, 9] of the same molecule?
The Cmax was 315 nM.

With `CN(C)CC[C@H](CSc1ccccc1)Nc1ccc(S(=O)(=O)NC(=O)c2ccc(N3CCN(CC4=C(c5ccc(Cl)cc5)CC(C)(C)CC4)CC3)cc2)cc1S(=O)(=O)C(F)(F)Cl` [Example 28, 3-((chloro(difluoro)methyl)sulfonyl)-N-(4-(4-((2-(4-chlorophenyl)-4,4-dimethylcyclohex-1-en-1-yl)methyl)piperazin-1-yl)benzoyl)-4-(((1R)-3-(dimethylamino)-1-((phenylsulfanyl)methyl)propyl)amino)benzenesulfonamide] as the molecule, how does the Ki (Bcl-2 protein) read?
Its Ki is no more than 1 nM.

What about the Ki (Bcl-XL protein) of the same molecule?
The Ki was no more than 1 nM.
